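48-hour exposure; five concentrations; linearly interpolated endpoints. GI50 marks 50% less growth. TGI denotes the concentration required for complete inhibition of growth.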
How the values were obtained:
Assay in all cases: NCI anticancer screen, dose series, 48 h
NCI-H23 lung = tested on: NCI-H23 lung
SW-620 colon = tested on: SW-620 colon
ACHN renal = tested on: ACHN renal
HL-60(TB) leukemia = tested on: HL-60(TB) leukemia
NCI-H522 lung = tested on: NCI-H522 lung
HOP-62 NSCLC = tested on: HOP-62 NSCLC
SK-MEL-2 melanoma = tested on: SK-MEL-2 melanoma
LOX IMVI melanoma = tested on: LOX IMVI melanoma
OVCAR-3 ovarian = tested on: OVCAR-3 ovarian
UO-31 renal = tested on: UO-31 renal

SMILES | GI50 (NCI-H23 lung) [µM] | TGI (NCI-H23 lung) [µM] | GI50 (SW-620 colon) [µM] | TGI (SW-620 colon) [µM] | GI50 (ACHN renal) [µM] | TGI (ACHN renal) [µM] | GI50 (HL-60(TB) leukemia) [µM] | TGI (HL-60(TB) leukemia) [µM] | GI50 (NCI-H522 lung) [µM] | TGI (NCI-H522 lung) [µM] | GI50 (HOP-62 NSCLC) [µM] | TGI (HOP-62 NSCLC) [µM] | GI50 (SK-MEL-2 melanoma) [µM] | TGI (SK-MEL-2 melanoma) [µM] | GI50 (LOX IMVI melanoma) [µM] | TGI (LOX IMVI melanoma) [µM] | GI50 (OVCAR-3 ovarian) [µM] | TGI (OVCAR-3 ovarian) [µM] | GI50 (UO-31 renal) [µM] | TGI (UO-31 renal) [µM]
N#CSc1cc(-c2nc3ccccc3o2)ccc1N | 19.5 | > 86.1 | 25.7 | > 86.2 | 19.2 | 58.5 | 0.195 | 0.552 | > 40.9 | > 64.6 | 52.7 | > 100 | 40.7 | > 74.3 | 13.5 | 43.9 | 17.9 | > 56.7 | 22.6 | > 59.4
Cn1cc(C2=C(c3cccc(Cl)c3)C(=O)NC2=O)c2ccccc21 | > 25 | > 25 | > 25 | > 25 | > 25 | > 25 | > 25 | > 25 | > 25 | > 25 | > 25 | > 25 | > 25 | > 25 | > 25 | > 25 | > 25 | > 25 | 8.3 | > 25
C/C(=N/OCCC(=O)O)C1CC1 | – | > 100 | – | > 100 | – | > 100 | – | > 100 | – | > 100 | – | > 100 | – | > 100 | – | > 100 | – | > 100 | – | > 100
S=C1NC2=C(CCOc3c2ccc2ccccc32)C(c2ccc(Cl)cc2)N1 (centres undefined) | 18.2 | 92 | 43.7 | > 100 | 36.4 | > 100 | 32.7 | > 100 | 25.1 | > 100 | 70.8 | > 100 | 80.9 | > 100 | 40.2 | > 100 | 20.9 | 70.6 | 46.2 | > 100
BrCC[N+]12CCCN1CCC2 | – | 36.6 | – | 7.39 | – | 14.3 | – | 12.9 | – | 1.71 | – | > 70.5 | – | 48.4 | – | 27 | – | 30.9 | – | 39.2
Cc1c(-c2ccnc(N)n2)c2c(n1-c1ccccc1)C(=O)c1ccccc1C2=O | – | – | 38.9 | > 100 | 19.6 | 77.7 | 7.83 | 30.4 | 13.2 | 37.2 | 6.61 | 37.6 | 22.9 | 57.2 | 10.6 | 24.2 | 12.3 | 30.6 | 13.5 | 51.1
Cc1cccc2c1C(=O)OC2(c1cccc2ccccc12)c1cccc2ccccc12 | – | > 100 | – | > 100 | – | > 100 | – | > 100 | – | > 100 | – | > 100 | – | > 100 | – | > 100 | – | > 100 | – | > 100
CC(C)=CCCC1(C)C=Cc2c(ccc3c2[nH]c2cc(O)c(C)cc23)O1 (centres undefined) | – | – | 4.68 | 9.49 | 6.83 | 20.2 | 9.48 | > 25 | 3.87 | 7.2 | 4.74 | 8.71 | 6.47 | > 25 | 4.53 | 8.19 | – | 9.07 | – | > 2.5
O=C(O)CSc1nnc(COc2ccccc2)n1-c1ccccc1 | – | > 100 | – | – | – | > 100 | – | > 100 | – | > 100 | – | > 100 | – | > 100 | – | > 100 | – | > 100 | – | > 100
C=C1C(=O)O[C@H]2[C@H]1CC/C(COC(=O)c1ccc(Br)cc1)=C\CC[C@@]1(C)O[C@@H]21 | 1.6 | 3.41 | 1.08 | 2.87 | 1.45 | 2.76 | 0.664 | 3.37 | 1.33 | 2.8 | – | – | 1.64 | 3.06 | 0.797 | 2.19 | 1.02 | 2.24 | 1.29 | 2.56
CC(C)S(=O)(=O)ON1C(=O)c2ccc([N+](=O)[O-])cc2C1=O | – | > 100 | – | > 100 | – | > 100 | – | > 100 | – | > 100 | – | > 100 | – | > 100 | – | – | – | > 100 | – | > 100
Clc1cc(-c2csc(Cl)c2)cs1 | – | > 100 | – | > 100 | – | > 100 | – | > 100 | – | > 100 | – | – | – | > 100 | – | > 100 | – | > 100 | – | > 100
